Reference: patent publication US7879823B2, “Topical anti-cancer compositions and methods of use thereof” (Johnson & Johnson Consumer Companies, priority 1999, dated 2011)

Tested on: Skin Tumors in SKH-1 Mice Previously Treated with Ultraviolet B Light
Assay: Development of skin tumors in high-risk SKH-1 mice previously treated with UVB, topical application
Type: in vivo
Conditions: for Effect on tumor growth / tumor progression (tumor volume per mouse), in words: daily topical treatment, 21 weeks of the treatment phase, relative to control; for Percent of mice with tumors / Tumor volume per mouse / Tumor volume per tumor / Tumors per mouse: topical once a day 5 days per week
From the text: Co. (Byran, Ohio). […] Controls include vehicle alone and an unrelated protein (BSA). […] Louis, Mo.). Acetone was from Fisher Scientific (Springfield, N.J.).

`Cn1c(=O)c2c(ncn2C)n(C)c1=O` [Caffeine, caffeine] was tested, and the “Effect on tumor growth / tumor progression (tumor volume per mouse), in words” value was “marked delay in tumor progression”, the “Number of tumors per mouse, in words” value (following topical treatment) was “reduced” and the “Percent of tumor-bearing mice, in words” value (following topical treatment) was “reduced”. The “Tumor volume per tumor, in words” value (following topical treatment) was “reduced”, the “Percent of mice with tumors” value (week 0) was 0 and the “Tumor volume per mouse” value (week 0) was 0 mm^3. For the same molecule, the “Tumor volume per tumor” value (week 0) was 0 mm^3, the Tumors per mouse (week 0) was 0 and the “Percent of mice with tumors” value (week 6) was 16.7%. For the same molecule, the “Tumor volume per mouse” value (week 6) was 0.2 ± 0.1 mm^3, the “Tumor volume per tumor” value (week 6) was 1.3 ± 0.7 mm^3 and the Tumors per mouse (week 6) was 0.2 ± 0.1. For the same molecule, the “Tumor volume per mouse” value (week 9) was 0.7 ± 0.5 mm^3, the “Tumor volume per tumor” value (week 9) was 3.4 ± 2.2 mm^3 and the Tumors per mouse (week 9) was 0.2 ± 0.1. The “Percent of mice with tumors” value (week 12) was 50.0%, the “Tumor volume per mouse” value (week 12) was 4.0 ± 1.9 mm^3 and the “Tumor volume per tumor” value (week 12) was 3.2 ± 0.8 mm^3. The Tumors per mouse (week 12) was 1.3 ± 0.4, the “Percent of mice with tumors” value (week 15) was 56.7% and the “Tumor volume per mouse” value (week 15) was 6.7 ± 2.2 mm^3. For the same molecule, the “Tumor volume per tumor” value (week 15) was 3.2 ± 0.6 mm^3, the Tumors per mouse (week 15) was 2.1 ± 0.5 and the “Percent of mice with tumors” value (week 18) was 80.0%. For the same molecule, the “Tumor volume per mouse” value (week 18) was 22.1 ± 6.2 mm^3, the “Tumor volume per tumor” value (week 18) was 6.2 ± 1.3 mm^3 and the Tumors per mouse (week 18) was 3.6 ± 0.6. The “Percent of mice with tumors” value (week 21) was 76.7%, the “Tumor volume per mouse” value (week 21) was 21.5 ± 6.0 mm^3 and the “Tumor volume per tumor” value (week 21) was 5.3 ± 1.0 mm^3. For the same molecule, the Tumors per mouse (week 21) was 4.0 ± 0.7.

“BSA in liposomes: bovine serum albumin (0.8 mg) in 100 ul liposomes; unrelated protein control” was tested, and the “Percent of mice with tumors” value (week 0) was 0, the “Tumor volume per mouse” value (week 0) was 0 mm^3 and the “Tumor volume per tumor” value (week 0) was 0 mm^3. For the same molecule, the Tumors per mouse (week 0) was 0, the “Percent of mice with tumors” value (week 6) was 20.0% and the “Tumor volume per mouse” value (week 6) was 0.6 ± 0.5 mm^3. The “Tumor volume per tumor” value (week 6) was 2.5 ± 1.9 mm^3, the Tumors per mouse (week 6) was 2.0 ± 0.1 and the “Percent of mice with tumors” value (week 9) was 50.0%. For the same molecule, the “Tumor volume per mouse” value (week 9) was 2.9 ± 1.4 mm^3, the “Tumor volume per tumor” value (week 9) was 2.7 ± 1.2 mm^3 and the Tumors per mouse (week 9) was 1.1 ± 0.3. The “Percent of mice with tumors” value (week 12) was 80.0%, the “Tumor volume per mouse” value (week 12) was 9.1 ± 3.1 mm^3 and the “Tumor volume per tumor” value (week 12) was 3.5 ± 1.0 mm^3. The Tumors per mouse (week 12) was 2.6 ± 0.6, the “Percent of mice with tumors” value (week 15) was 90.0% and the “Tumor volume per mouse” value (week 15) was 21.4 ± 6.6 mm^3. For the same molecule, the “Tumor volume per tumor” value (week 15) was 4.0 ± 0.7 mm^3, the Tumors per mouse (week 15) was 5.3 ± 0.8 and the “Percent of mice with tumors” value (week 18) was 90.0%. For the same molecule, the “Tumor volume per mouse” value (week 18) was 41.1 ± 9.7 mm^3, the “Tumor volume per tumor” value (week 18) was 6.3 ± 1.0 mm^3 and the Tumors per mouse (week 18) was 6.5 ± 0.9. The “Percent of mice with tumors” value (week 21) was 90.0%, the “Tumor volume per mouse” value (week 21) was 44.7 ± 11.6 mm^3 and the “Tumor volume per tumor” value (week 21) was 6.3 ± 1.0 mm^3. For the same molecule, the Tumors per mouse (week 21) was 7.1 ± 0.8.

B1: BBI: Bowman-Birk protease inhibitor (BBI; 0.8 mg; T97770, Sigma) in 100 ul liposomes (protein, UniProt P01055 40-110, looked up)
Bowman-Birk type proteinase …: DDESSKPCCDQCACTKSNPPQCRCSDMRLNSCHSACKSCICALSYPAQCFCVDITDFCYEPCKPSEDDKEN
modifications: in liposomes
notes: 0.8 mg; T97770, Sigma) in 100 ul liposomes
With B1 the “Percent of mice with tumors” value (week 0) was 0, the “Tumor volume per mouse” value (week 0) was 0 mm^3 and the “Tumor volume per tumor” value (week 0) was 0 mm^3. For the same molecule, the Tumors per mouse (week 0) was 0, the “Percent of mice with tumors” value (week 6) was 30.0% and the “Tumor volume per mouse” value (week 6) was 0.3 ± 0.1 mm^3. The “Tumor volume per tumor” value (week 6) was 0.9 ± 0.3 mm^3, the Tumors per mouse (week 6) was 0.4 ± 0.1 and the “Percent of mice with tumors” value (week 9) was 27.6%. The “Tumor volume per mouse” value (week 9) was 1.0 ± 0.7 mm^3, the “Tumor volume per tumor” value (week 9) was 1.7 ± 0.8 mm^3 and the Tumors per mouse (week 9) was 0.6 ± 0.2. The “Percent of mice with tumors” value (week 12) was 50.0%, the “Tumor volume per mouse” value (week 12) was 3.7 ± 1.8 mm^3 and the “Tumor volume per tumor” value (week 12) was 2.4 ± 0.8 mm^3. For the same molecule, the Tumors per mouse (week 12) was 1.5 ± 0.4, the “Percent of mice with tumors” value (week 15) was 66.7% and the “Tumor volume per mouse” value (week 15) was 9.0 ± 2.4 mm^3. The “Tumor volume per tumor” value (week 15) was 4.1 ± 0.8 mm^3, the Tumors per mouse (week 15) was 2.2 ± 0.4 and the “Percent of mice with tumors” value (week 18) was 76.7%. The “Tumor volume per mouse” value (week 18) was 19.0 ± 4.6 mm^3, the “Tumor volume per tumor” value (week 18) was 5.9 ± 1.3 mm^3 and the Tumors per mouse (week 18) was 3.2 ± 0.6. For the same molecule, the “Percent of mice with tumors” value (week 21) was 90.0%, the “Tumor volume per mouse” value (week 21) was 33.2 ± 9.6 mm^3 and the “Tumor volume per tumor” value (week 21) was 7.4 ± 2.0 mm^3. For the same molecule, the Tumors per mouse (week 21) was 4.5 ± 0.6.

B2: STI: trypsin inhibitor (STI; 0.8 mg; T9003, Sigma) in 100 ul liposomes (protein, UniProt P01070 25-205, looked up)
Trypsin inhibitor A: DFVLDNEGNPLENGGTYYILSDITAFGGIRAAPTGNERCPLTVVQSRNELDKGIGTIISSPYRIRFIAEGHPLSLKFDSFAVIMLCVGIPTEWSVVEDLPEGPAVKIGENKDAMDGWFRLERVSDDEFNNYKLVFCPQQAEDDKCGDIGISIDHDDGTRRLVVSKNKPLVVQFQKLDKESL
modifications: in liposomes
notes: 0.8 mg; T9003, Sigma) in 100 ul liposomes
For B2, the “Effect on tumor growth / tumor progression (tumor volume per mouse), in words” value was “unexpected and significant effect on tumor progression”, the “Percent of mice with tumors” value (week 0) was 0 and the “Tumor volume per mouse” value (week 0) was 0 mm^3. The “Tumor volume per tumor” value (week 0) was 0 mm^3, the Tumors per mouse (week 0) was 0 and the “Percent of mice with tumors” value (week 6) was 16.7%. For the same molecule, the “Tumor volume per mouse” value (week 6) was 0.8 ± 0.6 mm^3, the “Tumor volume per tumor” value (week 6) was 3.5 ± 1.9 mm^3 and the Tumors per mouse (week 6) was 0.2 ± 0.1. For the same molecule, the “Percent of mice with tumors” value (week 9) was 41.4%, the “Tumor volume per mouse” value (week 9) was 2.6 ± 1.4 mm^3 and the “Tumor volume per tumor” value (week 9) was 3.0 ± 1.4 mm^3. For the same molecule, the Tumors per mouse (week 9) was 0.9 ± 0.2, the “Percent of mice with tumors” value (week 12) was 46.7% and the “Tumor volume per mouse” value (week 12) was 9.4 ± 3.9 mm^3. For the same molecule, the “Tumor volume per tumor” value (week 12) was 4.8 ± 1.3 mm^3, the Tumors per mouse (week 12) was 1.9 ± 0.5 and the “Percent of mice with tumors” value (week 15) was 55.2%. The “Tumor volume per mouse” value (week 15) was 17.8 ± 7.9 mm^3, the “Tumor volume per tumor” value (week 15) was 5.8 ± 2.1 mm^3 and the Tumors per mouse (week 15) was 3.1 ± 0.7. For the same molecule, the “Percent of mice with tumors” value (week 18) was 63.3%, the “Tumor volume per mouse” value (week 18) was 30.7 ± 11.9 mm^3 and the “Tumor volume per tumor” value (week 18) was 7.3 ± 2.2 mm^3. The Tumors per mouse (week 18) was 4.2 ± 0.9, the “Percent of mice with tumors” value (week 21) was 80.0% and the “Tumor volume per mouse” value (week 21) was 48.7 ± 23.3 mm^3. The “Tumor volume per tumor” value (week 21) was 8.6 ± 3.2 mm^3 and the Tumors per mouse (week 21) was 5.6 ± 0.9.
